Measurements as given in patent publication US11066668B2, “Compositions and methods for modulation of IKBKAP splicing” (Ionis Pharmaceuticals, Inc., priority 2012, dated 2021).
Oligonucleotides are written 5' to 3', each unit as a sugar letter and its base; * is a phosphorothioate linkage, no mark a phosphodiester; rarer units and linkages stand in square brackets, end groups in braces. Plain capitals give the bases only. e = 2'-O-(2-methoxyethyl) (MOE); [5mC] = 5-methylcytosine

Tested on: IKBKAP pre-mRNA (mt19-21 minigene)
Assay: Exon 20 inclusion in HEK-293 cells harboring the mt19-21 IKBKAP minigene (RT-PCR)
Assay type: cell-based, human
Conditions: HEK-293 with mt19-21 minigene; for % inclusion (exon 20): 0.007 nmol oligonucleotide by electroporation, RT-PCR two days later; for effect on exon 20 inclusion/skipping, in words: 0.007 nmol oligonucleotide
Protocol: Antisense oligonucleotides were designed targeting a human IKBKAP nucleic acid and were tested for their effects on IKBKAP pre-mRNA in vitro. Together, the overlapping antisense oligonucleotides spanned the entire 74-nucleotide region of the IKBKAP exon 20 sequence, as well as the 100-nucleotide intronic regions immediately upstream and downstream of exon 20. The antisense oligonucleotides are presented in Table 1, and were designed as uniform 2′-O-methoxyethyl ribose (MOE) oligonucleotides with phosphate backbones. Each oligonucleotide is 15 nucleosides in length. All cytosine residues throughout the oligonucleotide are 5-methylcytosines. ‘Start Site’ indicates the 5′-most nucleoside to which the oligonucleotide is targeted in the human gene sequence. “Stop site” indicates the 3′-most nucleoside to which the oligonucleotide is targeted in the human gene sequence. Each oligonucleotide listed in Table 1 is targeted to the human IKBKAP genomic sequence (the complement of GENBANK Accession No NT_008470.16 truncated from nucleotides 13290828 to Ser. No. 13/358,424, designated herein as SEQ ID NO: 1). ISIS 414161 has one mismatch with SEQ ID NO: 1.
Cultured HEK-293 cells harboring the mt19-21 minigene vector construct at a density of 7×10^5 cells per well were transfected using electroporation (Gene Pulsar II apparatus, Bio-Rad) with 0.007 nmol antisense oligonucleotide, as previously described (Hua, Y., et al., 2007. PLoS Biol 5:e73). […] These oligonucleotides served as controls for non-specific effects of uniform MOE oligonucleotides with phosphate backbones. Cells harboring the wt19-21 minigene and the mt19-21 minigene alone were also cultured and were used as controls for exon 20 inclusion levels. Two days later, cDNA synthesized from total RNA extracted from HEK-293 cells was amplified using the forward primer pCDNAF and reverse primer sequence IKAP21R4 to assay the splicing pattern of expressed RNAs by RT-PCR. To calculate exon 20 inclusion levels, the PCR amplicons were labeled with α^32P-dCTP. The PCR products were then separated by native PAGE, followed by phosphorimage analysis on a FUJIFILM FLA-5100 instrument (Fuji Medical Systems USA Inc.). The band intensities were quantified using Multi Gauge software Version 2.3 (FUJIFILM), and values were normalized for the G+C content according to the DNA sequence.
Treatment with antisense oligonucleotides targeting the 3′ and 5′ splice sites caused increased skipping of exon 20.
Additional oligonucleotides were designed targeting the first 30-nucleotide stretch of ISS-40. These oligonucleotides were designed by choosing sequences shifted in one nucleotide increments upstream and downstream (i.e., a “microwalk”) of ISS-40, starting from the +6 position in exon 20. The antisense oligonucleotides are presented in Table 2 and FIG. 4D, and were designed as uniform 2′-O-methoxyethyl ribose (MOE) oligonucleotides with phosphate backbones. Each oligonucleotide is 20 nucleosides in length. All cytosine residues throughout the oligonucleotide are 5-methylcytosines. ‘Start Site’ indicates the 5′-most nucleoside to which the oligonucleotide is targeted in the human gene sequence. “Stop site” indicates the 3′-most nucleoside to which the oligonucleotide is targeted in the human gene sequence. Each oligonucleotide listed in Table 2 is targeted to intron 20 of the human IKBKAP genomic sequence (the complement of GENBANK Accession No NT_008470.16 truncated from nucleotides 13290828 to Ser. No. 13/358,424, designated herein as SEQ ID NO: 1). These oligonucleotides were tested in vitro.
Cultured HEK-293 cells harboring the mt19-21 minigene vector construct at a density of 7×10^5 cells per well were transfected using electroporation (Gene Pulsar II apparatus, Bio-Rad) with 0.007 nmol antisense oligonucleotide, as previously described (Hua, Y., et al., 2007. PLoS Biol 5:e73). […]

“ISIS 414144: uniform 2′-MOE 15-mer, phosphate backbone; TTAAAGCAGTAACAT, SEQ ID NO 23, intron 19 (eTeTeAeAeAeGe[5mC]eAeGeTeAeAe[5mC]eAeT; splice-switching)” was tested. Which “% inclusion (exon 20)” value (Table 1) did it give?
The value was 7%.

With “ISIS 414176: uniform 2′-MOE 15-mer, phosphate backbone; CATAATTTTAAGTTC, SEQ ID NO 55, intron 20 (e[5mC]eAeTeAeAeTeTeTeTeAeAeGeTeTe[5mC]; splice-switching)” as the substance, how does the “% inclusion (exon 20)” value (Table 1) read?
Its value is 31%.

With “ISIS 414147: uniform 2′-MOE 15-mer, phosphate backbone; GTTTCCCCTTGGCAT, SEQ ID NO 26, exon 20 (eGeTeTeTe[5mC]e[5mC]e[5mC]e[5mC]eTeTeGeGe[5mC]eAeT; splice-switching)” as the substance, how does the “% inclusion (exon 20)” value (Table 1) read?
The value was 3%.

For “ISIS 421997: uniform 2′-MOE 20-mer, phosphate backbone; AACTAGTCGCAAACAGTACA, SEQ ID NO 66, intron 20 (eAeAe[5mC]eTeAeGeTe[5mC]eGe[5mC]eAeAeAe[5mC]eAeGeTeAe[5mC]eA; splice-switching)”, which “% inclusion (exon 20)” value (Table 2 (microwalk experiment)) is on record?
The value was 81%.

With “ISIS 422000: uniform 2′-MOE 20-mer, phosphate backbone; GCTAACTAGTCGCAAACAGT, SEQ ID NO 69, intron 20 (eGe[5mC]eTeAeAe[5mC]eTeAeGeTe[5mC]eGe[5mC]eAeAeAe[5mC]eAeGeT; splice-switching)” as the substance, how does the “% inclusion (exon 20)” value (Table 2 (microwalk experiment)) read?
Its value is 63%.

How did the “% inclusion (exon 20)” value (Table 2 (microwalk experiment)) turn out when “ISIS 421996: uniform 2′-MOE 20-mer, phosphate backbone; ACTAGTCGCAAACAGTACAA, SEQ ID NO 65, intron 20 (eAe[5mC]eTeAeGeTe[5mC]eGe[5mC]eAeAeAe[5mC]eAeGeTeAe[5mC]eAeA; splice-switching)” was run?
Its value is 89%.

For “ISIS 414145: uniform 2′-MOE 15-mer, phosphate backbone; ATAAATTAAAGCAGT, SEQ ID NO 24, intron 19 (eAeTeAeAeAeTeTeAeAeAeGe[5mC]eAeGeT; splice-switching)”, which “% inclusion (exon 20)” value (Table 1) is on record?
Its value is 3%.

“ISIS 421995: uniform 2′-MOE 20-mer, phosphate backbone; CTAGTCGCAAACAGTACAAT, SEQ ID NO 64, intron 20 (e[5mC]eTeAeGeTe[5mC]eGe[5mC]eAeAeAe[5mC]eAeGeTeAe[5mC]eAeAeT; splice-switching)” was tested. Which “% inclusion (exon 20)” value (Table 2 (microwalk experiment)) did it give?
Its value is 92%.

For “ISIS 421994: uniform 2′-MOE 20-mer, phosphate backbone; TAGTCGCAAACAGTACAATG, SEQ ID NO 63, intron 20 (eTeAeGeTe[5mC]eGe[5mC]eAeAeAe[5mC]eAeGeTeAe[5mC]eAeAeTeG; splice-switching)”, which “% inclusion (exon 20)” value (Table 2 (microwalk experiment)) is on record?
The value was 91%.

How did the “% inclusion (exon 20)” value (Table 2 (microwalk experiment)) turn out when “ISIS 421999: uniform 2′-MOE 20-mer, phosphate backbone; CTAACTAGTCGCAAACAGTA, SEQ ID NO 68, intron 20 (e[5mC]eTeAeAe[5mC]eTeAeGeTe[5mC]eGe[5mC]eAeAeAe[5mC]eAeGeTeA; splice-switching)” was run?
Its value is 82%.

For “ISIS 414159: uniform 2′-MOE 15-mer, phosphate backbone; TTGTCCAACCACTTC, SEQ ID NO 38, exon 20 (eTeTeGeTe[5mC]e[5mC]eAeAe[5mC]e[5mC]eAe[5mC]eTeTe[5mC]; splice-switching)”, which “% inclusion (exon 20)” value (Table 1) is on record?
Its value is 2%.

With “ISIS 414137: uniform 2′-MOE 15-mer, phosphate backbone; TTTAAATAGCCAGGA, SEQ ID NO 16, intron 19 (eTeTeTeAeAeAeTeAeGe[5mC]e[5mC]eAeGeGeA; splice-switching)” as the substance, how does the “effect on exon 20 inclusion/skipping, in words” value read?
Its value is “positive effect on exon 20 inclusion”.

What about the “% inclusion (exon 20)” value (Table 1) of the same substance?
The value was 52%.

Which results are given for “ISIS 414166: uniform 2′-MOE 15-mer, phosphate backbone; ATAAATCACAAGCTA, SEQ ID NO 45, intron 20 (eAeTeAeAeAeTe[5mC]eAe[5mC]eAeAeGe[5mC]eTeA; splice-switching)”?
effect on exon 20 inclusion/skipping, in words: markedly increased inclusion of exon 20; % inclusion (exon 20) (Table 1): 40%; % inclusion (exon 20) (Table 2 (microwalk experiment)): 38%

“ISIS 414149: uniform 2′-MOE 15-mer, phosphate backbone; CAACTTCTAAGTTTC, SEQ ID NO 28, exon 20 (e[5mC]eAeAe[5mC]eTeTe[5mC]eTeAeAeGeTeTeTe[5mC]; splice-switching)” was tested. Which “% inclusion (exon 20)” value (Table 1) did it give?
Its value is 20%.

What does the source list for “ISIS 414136: uniform 2′-MOE 15-mer, phosphate backbone; ATAGCCAGGATACAC, SEQ ID NO 15, intron 19 (eAeTeAeGe[5mC]e[5mC]eAeGeGeAeTeAe[5mC]eAe[5mC]; splice-switching)”?
effect on exon 20 inclusion/skipping, in words: positive effect on exon 20 inclusion; % inclusion (exon 20) (Table 1): 45%

“ISIS 414146: uniform 2′-MOE 15-mer, phosphate backbone; CTTAAATAAATTAAA, SEQ ID NO 25, intron 19 (e[5mC]eTeTeAeAeAeTeAeAeAeTeTeAeAeA; splice-switching)” was tested. Which “% inclusion (exon 20)” value (Table 1) did it give?
The value was 26%.

With “ISIS 414150: uniform 2′-MOE 15-mer, phosphate backbone; ATGAACAACTTCTAA, SEQ ID NO 29, exon 20 (eAeTeGeAeAe[5mC]eAeAe[5mC]eTeTe[5mC]eTeAeA; splice-switching)” as the substance, how does the “% inclusion (exon 20)” value (Table 1) read?
The value was 5%.

“ISIS 414138: uniform 2′-MOE 15-mer, phosphate backbone; AAACATTTAAATAGC, SEQ ID NO 17, intron 19 (eAeAeAe[5mC]eAeTeTeTeAeAeAeTeAeGe[5mC]; splice-switching)” was tested. Which “% inclusion (exon 20)” value (Table 1) did it give?
The value was 23%.

With “ISIS 414132: uniform 2′-MOE 15-mer, phosphate backbone; TACCTAACTCTTCAC, SEQ ID NO 11, intron 19 (eTeAe[5mC]e[5mC]eTeAeAe[5mC]eTe[5mC]eTeTe[5mC]eAe[5mC]; splice-switching)” as the substance, how does the “% inclusion (exon 20)” value (Table 1) read?
The value was 19%.

For “ISIS 414131: uniform 2′-MOE 15-mer, phosphate backbone; AACTCTTCACAGAGA, SEQ ID NO 10, intron 19 (eAeAe[5mC]eTe[5mC]eTeTe[5mC]eAe[5mC]eAeGeAeGeA; splice-switching)”, which “% inclusion (exon 20)” value (Table 1) is on record?
The value was 30%.

How did the “% inclusion (exon 20)” value (Table 1) turn out when “ISIS 414153: uniform 2′-MOE 15-mer, phosphate backbone; AACCAGGGCTCGATG, SEQ ID NO 32, exon 20 (antisense eAeAe[5mC]e[5mC]eAeGeGeGe[5mC]eTe[5mC]eGeAeTeG)” was run?
Its value is 5%.

How did the “% inclusion (exon 20)” value (Table 1) turn out when “ISIS 414152: uniform 2′-MOE 15-mer, phosphate backbone; GGGCTCGATGATGAA, SEQ ID NO 31, exon 20 (antisense eGeGeGe[5mC]eTe[5mC]eGeAeTeGeAeTeGeAeA)” was run?
The value was 3%.

With “ISIS 414129: uniform 2′-MOE 15-mer, phosphate backbone, 5-methylcytosines; AGAGAATTACCACAA, SEQ ID NO 8, intron 19 (eAeGeAeGeAeAeTeTeAe[5mC]e[5mC]eAe[5mC]eAeA; splice-switching)” as the substance, how does the “% inclusion (exon 20)” value (Table 1) read?
Its value is 23%.

Which “% inclusion (exon 20)” value (Table 1) does the source give for “ISIS 414175: uniform 2′-MOE 15-mer, phosphate backbone; TTTTAAGTTCTCGAA, SEQ ID NO 54, intron 20 (eTeTeTeTeAeAeGeTeTe[5mC]eTe[5mC]eGeAeA; splice-switching)” here?
Its value is 27%.
